# Test results published in paper PMC10958225, “Therapeutic potential of orally applied KB-R7943 in streptozotocin-induced neuropathy in rats” (Heliyon, 2024).
# Legend:
# [1] = test system: STZ-treated rats with neuropathy; assay: 24-hour spontaneous physical activity; format: in vivo, rat; conditions: 5 mg/kg p.o. once daily from day 28, from day 41
# Protocol: (§1) On the day of diabetic state induction, rats were deprived of food for 6 h (from 8 a.m. to 2 p.m.). A single i.p. injection was applied with 55 mg/kg STZ in the ice-cold citrate buffer (0.1 M pH 4.4). The observed polydipsia, polyuria, reduced thriving with lower body weight, and poor coating appearance indirectly indicated the development of diabetes. On day 28, after 6 h of fasting, blood glucose was measured with an Xpress Statstrip Glucometer (Nova Biomedical Corporation, Waltham, MA, USA) from the tail vein. A cut-off value of blood glucose >13 mmol/l was adopted. […] Controls were once i.p. injected with ice-cold citrate buffer 0.1 M pH 4.4 only.
# (§2) Three animals per cage were housed for the experiment 2 (Fig. 3B). Rats were gently manipulated daily before undertaking the actual behavior tests. […] Body weight (BW), coat score (CS), CPT, R–S, and FT were evaluated on day 28th post-STZ, and after that, rats were distributed into the treatment groups as follows. • C-Veh – Controls, vehiculum treatment (n = 12) • NP-Veh – STZ-treated rats with neuropathy, vehiculum treatment (n = 12) • NP-KB-R7943 – 5 mg - STZ-treated rats, with neuropathy, KB-R7943 5 mg/kg treatment (n = 12) • NP-KB-R7943 – 10 mg – STZ-treated rats, with neuropathy, KB-R7943 10 mg/kg (n = 12) • NP-AMT – 10 mg - STZ-treated rats, with neuropathy, amitriptyline 10 mg/kg (n = 12). […]
# [2] = test system: STZ-treated rats with neuropathy; assay: Formalin test (0.5% formalin); format: in vivo, rat
# Protocol: as §1
# (§3) Three animals per cage were housed for the experiment 2 (Fig. 3B). Rats were gently manipulated daily before undertaking the actual behavior tests. One week after adaptation, the Randl-Stellito (R–S) test, cold plate test (CPT), and formalin tests (FT) were performed at baseline. After that, the diabetes model was made with 48 rats. Twelve animals served as controls. Body weight (BW), coat score (CS), CPT, R–S, and FT were evaluated on day 28th post-STZ, and after that, rats were distributed into the treatment groups as follows. • C-Veh – Controls, vehiculum treatment (n = 12) • NP-Veh – STZ-treated rats with neuropathy, vehiculum treatment (n = 12) • NP-KB-R7943 – 5 mg - STZ-treated rats, with neuropathy, KB-R7943 5 mg/kg treatment (n = 12) • NP-KB-R7943 – 10 mg – STZ-treated rats, with neuropathy, KB-R7943 10 mg/kg (n = 12) • NP-AMT – 10 mg - STZ-treated rats, with neuropathy, amitriptyline 10 mg/kg (n = 12).
# (§4) OraPlus was used as a vehiculum for gavage (16 gauge feeding tube 10 ml/kg) in all rats. KB-R7943 in two doses (5 or 10 mg/kg) or amitriptyline 10 mg/kg was applied once daily until day 49. Behavior tests were performed […] after the oral gavage of the corresponding day, in the afternoon, starting from 2 p.m. […] On day 41, an FST was performed, and at 2 p.m., rats were placed individually for 24 h to assess spontaneous physical activity. After that, on day 42, the same battery of the tests as on day 28 were reassessed.
# The formalin test was performed 1 h after the R–S test to decrease the interaction with the mechanical stimulus from the previous test. For the same reason, the left hind paws were injected. A needle (U-100 Insulin Syringe, Beckton and Dickinson, Dublin, Ireland) was used. A low-dose intraplantar injection of formalin 50 mcl 0.5% was done, and rats were placed in individual transparent cases for observation. Two independent observers measured the time spent licking or biting the injected paw, and the first (0–5 min) and the second post-injection phase (20–30 min) were reported in sec.
# [3] = test system: NCX3; set-up: method as in PMID 9688596; conditions: cited from earlier work
# [4] = test system: STZ-treated rats with neuropathy; assay: Forced swim test (FST); format: in vivo, rat; conditions: 10 mg/kg p.o. once daily from day 28, test on day 41, 5-min test
# Protocol: as §1, §2
# [5] = test system: STZ-treated rats with neuropathy; assay: Mortality and adverse effects during chronic oral treatment; format: in vivo; conditions: rat, in vivo, po
# Protocol: as §3
# as §4, with “After that, on day 42, the same battery of the tests as on day 28 were reassessed.” left out
# [6] = test system: STZ-treated rats with neuropathy; assay: Coat state score; format: in vivo, rat; conditions: chronic p.o. treatment from day 28, day 42
# Protocol: as §1
# as §2, with “3B).” for “3B). Rats were gently manipulated daily before undertaking the actual behavior tests.”
# Coat state, water consumption, and body weight were evaluated weakly. […] Water consumption was measured per cage. […]
structure (smiles),measurement,setting,value
"N=C(N)SCCc1ccc(OCc2ccc([N+](=O)[O-])cc2)cc1 [KB-R7943, [(2-{4-[(4-nitrophenyl)methoxy]phenyl}ethyl)sulfanyl]methanimidamide]",24-h spontaneous physical activity,[1],1705.92 ± 237.74 beam breaks
same,effect on formalin test first phase (0–5 min),"[2]; 5 mg/kg p.o. once daily, vs. 10 mg/kg groups",weaker effect
same,effect on formalin test first phase (0–5 min),"[2]; 10 mg/kg p.o. once daily, vs. NP-Veh",attenuated
same,effect on formalin test second phase (20–30 min),"[2]; amitriptyline 10 mg/kg, KB-R7943 5 and 10 mg/kg p.o. once daily, vs. NPveh, dose-dependent",attenuated
same,potency as inhibitor of NCX3 relative to NCX1 and NCX2,[3],three-fold more potent inhibitor of NCX3 than NCX1 and NCX2
same,immobility time in FST,[4],131.67 ± 29.80 s
same,mortality during treatment,[5],No one rat died
same,effect on coat score,[6],ameliorated
